Test: Photobleaching of biotinylated fluorophores on avidin-coated magnetic particles, epifluorescent microscope
Assay type: physicochemical
Conditions: bound to 1.3 μm avidin-coated magnetic particles, constant excitation, images every 30 seconds
Experimental: FIG. 6 illustrates a photobleaching profile of biotinylated fluorophores, in accordance with various embodiments.
In one specific, non-limiting example, the photobleaching of commercially available biotin-4-carboxyfluorescein (CF-biotin), and biotin-squaraine rotaxane (SQR-biotin) was examined by measuring the half-life of each of the probes. The dyes were incubated in excess with 1.3 μm magnetic particles coated in avidin. Following the incubation, the particles were washed of any unbound fluorophore, and the samples were then imaged on an epifluorescent microscope. The samples remained under constant excitation and images were captured every 30 seconds. Using ImageJ software, a region of interest (ROI) was drawn around the imaged magnetic particles and the mean pixel intensity was measured for each image.

With biotin-4-carboxyfluorescein [CF-biotin] the “photobleaching profile (fluorescence intensity versus time)” value was “dramatic photobleaching”.
